From ChEMBL document CHEMBL4359918, “Discovery of tissue selective liver X receptor agonists for the treatment of atherosclerosis without causing hepatic lipogenesis” (Eur J Med Chem, 2019)
Activity calls are given as the source filed them. No cut-off for these calls is given here.

Key:
[1] = Agonist activity at LXR in mouse 3T3L1 preadipocytes assessed as increase in sREBP-1c mRNA expression at 10 uM by qPCR analysis; type: cell-based
[2] = species: Mus musculus; test: Agonist activity at LXR in C57BL/6 mouse PBMC assessed as increase in ABCA1 mRNA expression at 10 uM incubated for 48 hrs by qPCR analysis
[3] = test system: HepG2; test: Effect on TG accumulation in human HepG2 cells at 10 uM incubated for 24 hrs; type: ADME, cell-based; details: hepg2, 24 h
[4] = Agonist activity at LXR in C57BL/6 mouse PBMC assessed as increase in sREBP-1c mRNA expression at 10 uM incubated for 48 hrs by qPCR analysis
[5] = test system: HepG2; test: Lipid lowering activity in human HepG2 cells assessed as decrease in OA-induced TG accumulation at 10 uM incubated for 24 hrs; type: functional, cell-based
[6] = Agonist activity at LXR in mouse 3T3L1 preadipocytes assessed as increase in ABCA1 mRNA expression at 10 uM by qPCR analysis; type: cell-based
[7] = Selectivity index, ratio of compound effect for agonist activity at human LXRalpha to compound effect for agonist activity at […]
[8] = Agonist activity at LXR in mouse RAW264.7 cells assessed as increase in sREBP-1c mRNA expression at 10 uM incubated for 48 hrs by qPCR analysis; type: cell-based; details: raw264.7, 48 h
[9] = target: Liver X receptor (Homo sapiens) (UniProt Q13133+P55055); test: Agonist activity at LXR in human HepG2 cells assessed as increase in ABCA1 mRNA expression at 10 uM incubated for 24 hrs by qPCR analysis; type: cell-based
[10] = target: T1, Oxysterols receptor LXR-beta (Rattus norvegicus) (UniProt Q62755); test: Agonist activity at rat LXRbeta transfected in HEK293T cells at 10 uM incubated for 20 hrs by luciferase reporter gene assay relative to control; type: cell-based
T1 sequence (whole entry): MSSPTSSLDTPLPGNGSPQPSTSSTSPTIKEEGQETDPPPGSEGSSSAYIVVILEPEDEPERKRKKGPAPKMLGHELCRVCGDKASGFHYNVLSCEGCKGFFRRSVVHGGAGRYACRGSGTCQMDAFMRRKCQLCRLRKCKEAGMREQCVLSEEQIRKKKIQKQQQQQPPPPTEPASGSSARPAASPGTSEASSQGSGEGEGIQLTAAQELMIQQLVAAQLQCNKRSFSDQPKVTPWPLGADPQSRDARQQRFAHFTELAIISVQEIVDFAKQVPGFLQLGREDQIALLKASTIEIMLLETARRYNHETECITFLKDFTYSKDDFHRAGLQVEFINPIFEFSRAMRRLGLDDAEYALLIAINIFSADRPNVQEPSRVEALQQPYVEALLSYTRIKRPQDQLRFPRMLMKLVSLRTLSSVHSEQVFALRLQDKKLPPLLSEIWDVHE

[11] = target: T2, LXRalpha (Oxysterols receptor LXR-alpha) (Homo sapiens, UniProt Q13133); test: Agonist activity at human LXRalpha transfected in HEK293T cells at 10 uM incubated for 20 hrs by luciferase reporter gene assay relative to control; type: cell-based; details: HEK293T cells transfected with human LXRalpha, read-out: FC
T2 sequence (Q13133 whole entry): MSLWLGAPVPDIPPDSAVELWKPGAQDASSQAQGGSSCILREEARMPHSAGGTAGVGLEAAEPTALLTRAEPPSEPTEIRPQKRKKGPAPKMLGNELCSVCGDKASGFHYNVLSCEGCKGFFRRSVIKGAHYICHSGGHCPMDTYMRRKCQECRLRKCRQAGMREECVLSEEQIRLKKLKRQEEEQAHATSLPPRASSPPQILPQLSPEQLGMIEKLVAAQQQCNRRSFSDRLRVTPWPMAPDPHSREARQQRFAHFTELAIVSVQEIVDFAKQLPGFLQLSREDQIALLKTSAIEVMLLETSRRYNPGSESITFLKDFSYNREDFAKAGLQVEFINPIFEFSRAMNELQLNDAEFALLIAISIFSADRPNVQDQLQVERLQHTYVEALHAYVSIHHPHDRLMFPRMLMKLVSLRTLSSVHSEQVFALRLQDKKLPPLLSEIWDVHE

[12] = test system: RAW264.7; test: Cytotoxicity against mouse RAW264.7 cells assessed as reduction in cell viability at 2 to 50 µM incubated for 24 hrs by MTT assay; type: cell-based; details: raw264.7, 24 h
[13] = test system: 3T3-L1; test: Anti-adipogenic activity in mouse 3T3L1 preadipocytes assessed as decrease in triglyceride accumulation; type: functional, cell-based
[14] = test system: 3T3-L1; test: Anti-adipogenic activity in mouse 3T3L1 preadipocytes assessed as decrease in lipid accumulation by Oil Red O staining-based microscopic analysis; type: functional, cell-based
[15] = test system: HepG2; test: Cytotoxicity against human HepG2 cells assessed as reduction in cell viability at 2 to 50 uM incubated for 24 hrs by MTT assay; type: cell-based; details: hepg2, 24 h
[16] = test system: RAW264.7; test: Agonist activity at LXR in mouse RAW264.7 cells assessed as increase in ABCA1 mRNA expression at 10 uM incubated for 48 hrs by qPCR analysis; type: cell-based
[17] = test system: 3T3-L1; test: Cytotoxicity against mouse 3T3L1 preadipocytes assessed as reduction in cell viability at 2 to 50 uM incubated for 24 hrs by MTT assay; type: cell-based; details: 3t3-l1, 24 h
[18] = test system: RAW264.7; test: Anti-atherosclerotic activity in mouse RAW264.7 cells assessed as inhibition of ox-LDL induced lipid accumulation at 10 uM incubated for 48 hrs by ORO staining based microscopic analysis; type: functional, cell-based
[19] = test system: HEK-293T; test: Cytotoxicity against HEK293T cells assessed as reduction in cell viability at […] incubated for 24 hrs by MTT assay; type: cell-based; details: human
[20] = test system: PBMC; test: Anti-atherosclerotic activity in C57BL/6 mouse PBMC assessed as inhibition of ox-LDL induced lipid accumulation at 10 uM incubated for 48 hrs by ORO staining based microscopic analysis; type: functional, cell-based
[21] = target: T3, Oxysterols receptor LXR-alpha (Homo sapiens) (UniProt Q13133); test: Agonist activity at human LXRalpha transfected in HEK293T cells at 10 uM incubated for 20 hrs in presence of LXR antagonist SR9243 by luciferase reporter gene assay relative to control; type: cell-based
T3 sequence (whole entry): T2 sequence (Q13133 whole entry)

Sequence of Liver X receptor (Homo sapiens) (P55055 whole entry, looked up, one chain of several): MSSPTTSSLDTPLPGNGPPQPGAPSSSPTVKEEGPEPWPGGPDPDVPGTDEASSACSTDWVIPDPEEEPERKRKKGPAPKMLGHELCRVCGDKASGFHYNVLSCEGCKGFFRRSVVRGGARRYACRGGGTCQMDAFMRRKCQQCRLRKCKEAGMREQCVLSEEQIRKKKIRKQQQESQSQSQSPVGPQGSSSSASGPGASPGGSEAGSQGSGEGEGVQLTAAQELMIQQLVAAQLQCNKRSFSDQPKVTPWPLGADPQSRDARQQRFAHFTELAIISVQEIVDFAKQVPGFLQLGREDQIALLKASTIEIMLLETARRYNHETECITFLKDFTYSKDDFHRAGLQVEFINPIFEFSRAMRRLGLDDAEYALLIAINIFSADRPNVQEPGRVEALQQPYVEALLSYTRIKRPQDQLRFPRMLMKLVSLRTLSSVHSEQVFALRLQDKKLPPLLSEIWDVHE

O=C(O)Cc1cccc(OCCCN(Cc2cccc(C(F)(F)F)c2Cl)CC(c2ccccc2)c2ccccc2)c1
Activity [1]: Active | Activity [2]: Active | Activity [3]: Toxic | Activity [4]: Not Active | Activity [5]: inactive | Activity [6]: Active | Ratio [7]: 1.11 | Activity [8]: Not Active | Activity [9]: Active | fold change (FC) [10]: 2.42 | fold induction at 20 h, 10 µM [11]: 2.19

CC(C)C(=O)CC[C@@H](C)[C@H]1CC[C@H]2[C@@H]3CC=C4C[C@@H](O)CC[C@]4(C)[C@H]3CC[C@]12C
Activity [12]: Non-Toxic | Activity [1]: Not Active | Activity [2]: Active | Activity [3]: Non-Toxic | Activity [13]: Active | Activity [14]: Active | Activity [5]: Active | Activity [15]: Non-Toxic | Activity [16]: Active | Activity [17]: Non-Toxic | inhibition [18]: Active | Activity [6]: Active | Ratio [7]: 1.63 | Activity [19]: Non-Toxic | inhibition [20]: Active | Activity [9]: Active | fold change (FC) [10]: 3.85 | Activity [21]: inactive | fold induction at 20 h, 10 µM [11]: 2.36
